Source: patent US20230067676A1, “CO-CRYSTALS AND SALTS OF 8-CHLORO-N-(4-(TRIFLUOROMETHOXY)PHENYL)QUINOLIN-2-AMINE” (ABIVAX, priority 2020, published 2023)
In brackets after ≈: the same amount, converted by molar mass. Like-named read-outs stand apart in the source and are kept apart here. One block for each compound: values may come before it.

Columns and labels:
[1] = Two-steps Dissolution/Precipitation in vitro Human Fasted model (gastric then intestinal compartment); type: physicochemical; details: for Crystalline phase conversion as detected by XRPD: solid residues collected in the fasted Dissolution/Precipitation test
Protocol: Samples were analysed by HPLC-UV according to the following method: • Instrument: Agilent 1200 and 1100 with PDA detector • Column: Waters XTerra MS C18 3.5 μm 4.6×50 mm • Flow rate: 1.5 ml/min • UV detection: 220 nm, 270 nm, 290 nm • Column temperature: 40° C. • Injection volume: 1 μl • Mobile phase: gradient with solutions A and B prepared according to the following: • Eluent A: Ultrapurified water adjusted to pH2 with orthophosphoric acid 85% • Eluent B: Acetonitrile
The ABX464 crystalline Form I, and anhydrous ABX464 hemi-Napadisylate salt have been evaluated in the Two-steps Dissolution/Precipitation in vitro Human model.
The model consists in the following steps: • Dispensing selected material in Fasted simulated gastric medium containing 1% w PVPVA (inhibitor of precipitation) and then after 30 min, • Diluting obtained suspension by simulated Fasted intestinal medium.
Using this model, the dissolution of selected materials (ABX464 crystalline Form I, or anhydrous BX464 hemi-Napadisylate salt) in gastric medium and the risk of precipitation of the API (Active Pharmaceutical Ingredient) in intestinal compartment is evaluated.
The crystalline nature of solid residues collected by end of each steps (Gastric and Intestinal) have been determined by XRPD after centrifugation (15 min at 18000 rpm).
Protocol for Dissolution/Precipitation Model in Human Fasted Conditions • In 6 different vials, 4.0 mg equivalent ABX464 of selected material are weighed • Solubility measurement in the gastric compartment (also named G) after 15 min (G15 min) and after 30 min (G30 min) which comprises the following steps: • Adding 1 mL of FaSSGF pH 1.2 medium containing 1% w PVPVA (ABX464 target concentration=4 mg/ml) on the 6 vials, • Mixing with a vortex at 37° C. • At times 15 min and 30 min, considering one vial (vials labelled G15 min and G30 min respectively) and for each vials • noting the aspect of suspension, • centrifuging 5 min at 18000 rpm and filtering on a 0.45 μm filter (filter Millex LCR Ref. SLCR0,13NK). • Measuring the pH of supernatant, • Dosing ABX464 soluble fraction by HPLC, • Recording XPRD pattern on the final time point sample. • Solubility measurement in the intestinal compartment (also named I) after 15 min (vial I 15 min), 30 min (vial I 30 min), 60 min (vial I 60 min) and 120 min (vial I 120 min) which comprises the following steps: • Adding 1 mL of FaSSIF ×2 pH 6.5 medium/sodium bicarbonate 90/10) on the 4 remaining vials (ABX464 target concentration=2 mg/ml) • Mixing with a Vortex at 37° C. • At times 15 min, 30 min, 60 min and 120 min, considering one vial (vials labelled I 15 min, I 30 min, I 60 min and I 120 min respectively) and for each vials • noting the aspect of suspension • Centrifuging 5 min at 18000 rpm and filtering on a 0.45 μm filter (filter Millex LCR Ref. SLCR0,13NK). • Measuring the pH of supernatant • Dosing ABX464 soluble fraction by HPLC • Recording XPRD pattern on the final time point sample.
Composition and preparation of biorelevant media in Fasted conditions (see tables 11 and 12): • Fasted Gastric medium=FaSSGF pH=1.2/1% PVPVA w/v
• Fasted Intestinal medium (FaSSIF X2 pH=6.5/Sodium Bicarbonate at 80 g/l 90/10 v/v) Composition/Preparation of FaSSIF ×2 (medium concentrated 2 times to take into account the dilution in the Fasted model):
The FaSSIF X2/Sodium Bicarbonate 80 g/l (90/10; v/v) mixture was prepared to keep pH equal to 6.5 in the intestinal compartment after dilution.

[2] = physchem; details: thermodynamic from solid
Protocol: (§1) These two specific aqueous media are more particularly: • FaSSIF (namely Fasted State Simulated Intestinal Fluid) pH=6.5+1% by weight of PVPVA (polyvinyl pyrrolidone-vinyl acetate: a precipitation inhibitor); and • FeSSIF (namely Fed State Simulated Intestinal Fluid) pH=5.0+1% by weight of PVPVA (a precipitation inhibitor)
(§2) To make 5 mL of FeSSIF the steps were as follows: • weighing 56.0 mg of SIF Powder, adding 350 μl of FeSSIF Buffer Concentrate then making up to 5.0 mL with ultrapurified water; and adding 1% w/w PVPVA.

[3] = Kinetic solubility in two aqueous media (FaSSIF pH 6.5 + 1% PVPVA; FeSSIF pH 5.0 + 1% PVPVA); details: for Solubility compared to the ABX464 crystalline Form I: FaSSIF and FeSSIF media (+ 1% PVPVA), at each time; for Kinetic solubility: room temperature, 2 mg/ml equivalent ABX464 target
Protocol: as §1, §2

[4] = FaSSIF pH 6.5 + 1% PVPVA, pH 6.5, aqueous with cosolvent or surfactant or cyclodextrin
[5] = FeSSIF + 1% PVPVA, pH 5, aqueous with cosolvent or surfactant or cyclodextrin
[6] = FeSSIF pH 5 + 1% PVPVA, pH 5, aqueous with cosolvent or surfactant or cyclodextrin

solubility at 15 min ([1]; 37 °C, pH 1.2, fassgf or other biorelevant, thermodynamic from solid, gastric compartment, vial G 15 min, FaSSGF pH 1.2 + 1% PVPVA, 37° C., target about 4 mg/ml, read-out: Soluble fraction): 60 µg/mL
solubility at 30 min ([1]; 37 °C, pH 1.2, fassgf or other biorelevant, thermodynamic from solid, gastric compartment, vial G 30 min, FaSSGF pH 1.2 + 1% PVPVA, 37° C., target about 4 mg/ml, read-out: Soluble fraction): 70 µg/mL
solubility ([1]; 37 °C, pH 6.5, fassif, thermodynamic from solid, intestinal compartment at pH 6.5 of the fasted human in vitro model, read-out: Solubility (ABX464 soluble fraction) in the intestinal compartment): ~80 µg/mL (≈ 236 µM)
solubility at 15 min ([1]; 37 °C, pH 6.5, fassif, thermodynamic from solid, intestinal compartment, vial I 15 min (45 min total), FaSSIF x2 pH 6.5/sodium bicarbonate 90/10 added, 37° C., target about 2 mg/ml, read-out: Soluble fraction): 60 µg/mL (≈ 177 µM)
solubility at 30 min ([1]; 37 °C, pH 6.5, fassif, thermodynamic from solid, intestinal compartment, vial I 30 min (60 min total), FaSSIF x2 pH 6.5/sodium bicarbonate 90/10 added, 37° C., target about 2 mg/ml, read-out: Soluble fraction): 70 µg/mL (≈ 207 µM)
solubility at 60 min ([1]; 37 °C, pH 6.5, fassif, thermodynamic from solid, intestinal compartment, vial I 60 min (90 min total), FaSSIF x2 pH 6.5/sodium bicarbonate 90/10 added, 37° C., target about 2 mg/ml, read-out: Soluble fraction): 70 µg/mL (≈ 207 µM)
solubility at 120 min ([1]; 37 °C, pH 6.5, fassif, thermodynamic from solid, intestinal compartment, vial I 120 min (150 min total), FaSSIF x2 pH 6.5/sodium bicarbonate 90/10 added, 37° C., target about 2 mg/ml, read-out: Soluble fraction): 80 µg/mL (≈ 236 µM)
Crystalline phase conversion as detected by XRPD ([1]; intestinal compartment): no crystalline phase conversion
solubility kinetic at 5 min [2, 4]: 6 µg/mL
solubility kinetic at 30 min [2, 4]: 22 µg/mL
solubility kinetic at 2 h [2, 4]: 47 µg/mL
solubility kinetic at 4 h [2, 4]: 62 µg/mL
solubility kinetic at 24 h [2, 4]: 72 µg/mL
solubility at 2 h [2, 5]: ~300 µg/mL
solubility at 24 h [2, 5]: ~420 µg/mL
solubility kinetic at 5 min [2, 6]: 54 µg/mL
solubility kinetic at 30 min [2, 6]: 153 µg/mL
solubility kinetic at 2 h [2, 6]: 297 µg/mL
solubility kinetic at 4 h [2, 6]: 358 µg/mL
solubility kinetic at 24 h [2, 6]: 419 µg/mL
SMILES: FC(F)(F)Oc1ccc(Nc2ccc3cccc(Cl)c3n2)cc1 [ABX464 crystalline Form I, 8-chloro-N-(4-(trifluoromethoxy)phenyl)quinolin-2-amine]

Soluble fraction ([1]; gastric compartment, vial G 15 min, FaSSGF pH 1.2 + 1% PVPVA, 37° C., target about 4 mg/ml): 0.05 mg/mL
Soluble fraction ([1]; gastric compartment, vial G 30 min, FaSSGF pH 1.2 + 1% PVPVA, 37° C., target about 4 mg/ml): 0.06 mg/mL
Solubility (ABX464 soluble fraction) in the intestinal compartment ([1]; intestinal compartment at pH 6.5 of the fasted human in vitro model): ~430 µg/mL
Soluble fraction ([1]; intestinal compartment, vial I 15 min (45 min total), FaSSIF x2 pH 6.5/sodium bicarbonate 90/10 added, 37° C., target about 2 mg/ml): 0.17 mg/mL
Soluble fraction ([1]; intestinal compartment, vial I 30 min (60 min total), FaSSIF x2 pH 6.5/sodium bicarbonate 90/10 added, 37° C., target about 2 mg/ml): 0.23 mg/mL
Soluble fraction ([1]; intestinal compartment, vial I 60 min (90 min total), FaSSIF x2 pH 6.5/sodium bicarbonate 90/10 added, 37° C., target about 2 mg/ml): 0.32 mg/mL
Soluble fraction ([1]; intestinal compartment, vial I 120 min (150 min total), FaSSIF x2 pH 6.5/sodium bicarbonate 90/10 added, 37° C., target about 2 mg/ml): 0.43 mg/mL
Crystalline phase conversion as detected by XRPD ([1]; intestinal compartment): no crystalline phase conversion
Solubility compared to the ABX464 crystalline Form I [3]: higher solubility
Solubility compared to the ABX464 crystalline Form I ([3]; listed as ABX464 hemi-Napadisylate salt): significant higher solubility
Kinetic solubility ([3]; FassiF pH 6.5 + 1% PVPVA, sampling time 5 min): 70 µg/mL
Kinetic solubility ([3]; FassiF pH 6.5 + 1% PVPVA, sampling time 30 min): 116 µg/mL
Kinetic solubility ([3]; FassiF pH 6.5 + 1% PVPVA, sampling time 2 h): 149 µg/mL
Kinetic solubility ([3]; FassiF pH 6.5 + 1% PVPVA, sampling time 4 h): 206 µg/mL
Kinetic solubility ([3]; FassiF pH 6.5 + 1% PVPVA, sampling time 24 h): 432 µg/mL
Solubility, plateau ([3]; FeSSIF + 1% PVPVA medium, at 2 h): ~1050 µg/mL
solubility ([3]; FeSSIF + 1% PVPVA medium, at 24 h): ~1520 µg/mL
Kinetic solubility ([3]; FessiF pH 5 + 1% PVPVA, sampling time 5 min): 396 µg/mL
Kinetic solubility ([3]; FessiF pH 5 + 1% PVPVA, sampling time 30 min): 782 µg/mL
Kinetic solubility ([3]; FessiF pH 5 + 1% PVPVA, sampling time 2 h): 1053 µg/mL
Kinetic solubility ([3]; FessiF pH 5 + 1% PVPVA, sampling time 4 h): 1055 µg/mL
Kinetic solubility ([3]; FessiF pH 5 + 1% PVPVA, sampling time 24 h): 1517 µg/mL
SMILES: FC(F)(F)Oc1ccc(Nc2ccc3cccc(Cl)c3n2)cc1.FC(F)(F)Oc1ccc(Nc2ccc3cccc(Cl)c3n2)cc1.O=S(=O)(O)c1cccc2c(S(=O)(=O)O)cccc12 [anhydrous ABX464 hemi-Napadisylate salt]
